# From patent US11453642B2, “Oxygenated amino- or ammonium-containing sulfonic acid, phosphonic acid and carboxylic acid derivatives and their medical use” (GRI BIO, INC., priority 2011, dated 2022)
# Marks after values point to notes of the source that are not given here.
# What was measured:
# [1] = tested on: allergic contact dermatitis response in mice; assay: Allergic contact dermatitis (TDI) model in mice, mouse ear swelling test; assay type: in vivo
# Experimental: The anti-inflammatory and anti-allergic effects of compounds 1a and 1c were assessed in a mouse model of allergic contact dermatitis, a response driven primarily by T helper type 2 (Th2) cells. […] In this model, an allergic dermatitis response is obtained by sensitizing mice to TDI and subsequently challenging them with antigen by topical administration onto the ears. A quantitative assessment of anti-inflammatory and anti-allergic effects of topically or orally administered test compounds is possible by measuring the resulting ear swelling. The advantages of the allergic contact dermatitis model (Zöllner et al., Bioessays 26:693-6 (2004)) are reproducibility and reliability (>90% of BALB/c mice respond to sensitization), a short induction protocol, quantitative assessment by measuring ear thickness, atopic dermatitis-like skin lesions can be induced, and clinically relevant pharmaceuticals, such as corticosteroids, calcineurin-inhibitors and PDE4-inhibitors, are effective in this model.
# Female BALB/c-mice were obtained from Charles River (Sulzfeld, Germany) at age 8 weeks. All animals were housed in groups of eight per cage at 22° C. with a 12 h light/dark-cycle, Water and a standard diet (Altromin, Lage/Lippe, Germany) were available ad libitum. All animals were acclimatized for one week before experimental procedures were commenced.
# Experimental procedures for BALB/c mice housing, TDI sensitization and challenge, and measurement of ear thickness were performed as previously described (Baumer et al., J Pharm Pharmacol, 55:1107-1114 (2003)) with the following modifications. For active sensitization, 100 μL of 5% (w/v) TDI was administered to the shaved and stripped abdominal epidermis on day one, and for the next three consecutive days, 50 μL of 5% (My) TDI was applied. The allergic reaction was boosted 21 days later by application of 50 μL of 0.5% (w/v) TDI. For the examination of test compound effects, the left ears were used for the TDI challenge (20 μL of 0.5% in acetone) and ear thickness measured 3 h before and 24 h after challenge.
# Group size was n=7 mice unless otherwise stated. Test compounds were freshly prepared before administration.
# Administration time: to determine optimal time for administration treatment groups were treated orally by gavage with 100 mg/kg of compound 1a or 1c (suspended in 0.5% tylose, 10 mL/kg) 1, 4 or 16 h before topical TDI challenge. One group was treated with 100 mg/kg miltefosine orally, 16 h before challenge (based on available data for optimal administration time for miltefosine) and vehicle treated mice received tylose (10 mL/kg) orally, 4 h before challenge.
# Dose-response: two groups of mice were treated orally with compound 1a at 25 mg/kg or 100 mg/kg suspended in 0.5% tylose, 4 h before topical TDI challenge. Vehicle treated mice received 0.5% tylose orally 4 h before challenge. As a positive control, dexamethasone was administered in saline solution at 1 mg/kg or 3 mg/kg, 2 h and 30 min before challenge and 1 h after challenge. The dose and dosing scheme for dexamethasone was based on previous experience showing a maximal effect in this model.
# Compound 1a was administered to two groups of mice topically in 20 μl of a 2% or 6% solution in propyleneglycol. The suspension was heated to 60° C. and mixed using a thermomixer (Eppendorf) until it became clear. The solution was applied, 2 h before topical TDI challenge by administration of 10 μl onto each of the inner and outer surfaces of the left ears. A vehicle group (17=5) was treated with propyleneglycol. As a positive control, diflorasone, diacetate was administered at 0.01% (low dose) and 0.05% (high dose) in 20 μl acetone, 2 h before challenge. A basal control group was left untreated.
# Mean and standard error of the mean (SEM) were calculated from individual ear edema values. […]
# [2] = tested on: allergic contact dermatitis response in mice; assay: as above; assay type: in vivo; conditions: topical, 0.5% in 20 μl acetone, 2 h before challenge
# [3] = tested on: local lymph node reaction; assay: Local lymph node weight and cell count after TDI challenge; assay type: in vivo, mice; conditions: topical 1a 2% or 6%, diflorasone 0.1% and 0.5%
# Experimental: Directly after sacrifice, the ear draining lymph node (Ln. auricularis) was prepared and excised. Organ weight was determined by means of an analytical balance (Kern, Balingen, Germany). Single cell suspensions were prepared by means of a glass potter (VWR, Darmstadt, Germany) and cells were counted with a hemocytometer (Neubauer, VWR, Germany).
# One of the most undesirable side-effects of corticosteroid administration is immunosuppression, which leads to the inability to effectively address parasitic infection, wound healing and tumor growth. In the current study, the local lymph node reaction after TDI challenge (lymph node weight and cell number) was determined to assess the response of immune organs.
smiles,measurement,setting,value
"CC(=O)OCC(=O)[C@@]1(OC(C)=O)[C@@H](C)C[C@H]2[C@@H]3C[C@H](F)C4=CC(=O)C=C[C@]4(C)[C@@]3(F)[C@@H](O)C[C@@]21C [Diflorasone, diflorasone diacetate, reference compound]",effect on ear swelling (in words),"[1]; topical positive control, ear thickness reduced below level of untreated mice",completely eliminated ear swelling
same,Inhibition of mouse ear swelling,"[1]; topical, 0.1% in 20 μl acetone, 2 h before challenge",101.1*** %
same,Inhibition of mouse ear swelling,[2],110.8*** %
same,local lymph node reaction (lymph node weight and cell number),[3],completely inhibiting the increase
